Drawing on patent US20250179120A1, “CYCLIC PEPTIDE OR SALT THEREOF, AND MDMX INHIBITOR” (FUJIFILM Corporation, priority 2022, published 2025), this text covers Papp A→B for five compounds.

Numbered stars: 1 amine (or outer) side, 2 acyl side, 3 side chain; on linkers, the order of the positions; unused ones are H or OH. Square brackets hold non-standard residues; d marks the D form. Peptide text beside a SMILES is read from it. Ala(4-thiazolyl) = N[C@@H](Cc1cscn1)C(=O)O; Phe(4-Cl) = N[C@@H](Cc1ccc(Cl)cc1)C(=O)O; X1 = O=C(CSC[C@H](Cc1cscn1)N[*:1])[*:2]; Phe(4-F) = N[C@@H](Cc1ccc(F)cc1)C(=O)O; NHCH2CH2SCH2CO = O=C(CSCCN[*:1])[*:2]; NMeF = CN[C@@H](Cc1ccccc1)C(=O)O; Tle = CC(C)(C)[C@H](N)C(=O)O; hSer = N[C@@H](CCO)C(=O)O; NMeA = CN[C@@H](C)C(=O)O; dNMeA = CN[C@H](C)C(=O)O; Nme = COCCNCC(=O)O

A short description of the data set: Evaluation of cell membrane permeability (MDCKII permeation test, Papp). In kind it is in vitro ADME. Particulars: MDCK, MDCKII cell layer, 10 μM in HBSS, apical to basal, 37° C.; for Papp A→B: 2 hours. Here is the method: Evaluation of the cell membrane permeability of the cyclic peptide according to the embodiment of the present invention was carried out.
300 μL of MDCKII cells (ECACC standard cell line) were seeded at a density of 1.0×10^6 cells/mL onto an insert (dedicated for a 24-well plate, pore diameter: 3.0 μm, manufactured by Corning Incorporated) and cultured at 37° C. in a 5% CO2 environment. After three days, the electric resistance value of the cell layer was measured (using a measuring device), and it was confirmed that the cell layer had high barrier properties (>100 Ω·cm^2).
After the insert was washed by being immersed in HBSS (phenol red-free, the same applies hereinafter), 200 μL of a sample prepared in 10 μM/HBSS was added thereto, and the insert was allowed to stand in a low-adsorption 24-well plate containing 900 μL of HBSS (37° C., 5% CO2). After 2 hours, each liquid of an upper layer (apical) and a lower layer (basal) of the insert (10 μL for apical and 500 μL for basal) was recovered. After testing, no leakage was confirmed with Lucifer Yellow, which is a non-permeable fluorescent dye.
The device used was LC/MS/MS (triple quadrupole type).
Eluent: A) 5 mM ammonium formate, 0.2% formic acid/H2O, B) 0.1% formic acid/MeCN, flow rate: 0.5 mL/min, injection volume: 2 μL, column: ACQUITY UPLC BEH C18 Column, 1.7 μm, 2.1 mm×50 mm (manufactured by Waters Corporation), temperature: 70° C., gradient (% B): 2% (0 to 0.5 min)→98% (2 to 3 min)→2% (3 to 5 min), ionization: ESI, detection mode: MRM (positive)
Based on the calculation expression shown in Expression (1), a permeability coefficient Papp, which represents the membrane permeability, was calculated from each quantitative value.
C0: initial concentration (10 μM)
S: surface area (0.33 cm^2) of single layer membrane
dC/dt: concentration change at basal [μM/s]

As usually defined, the Papp A→B is the apparent permeability from the apical to the basolateral side of a cell layer. Low values mean slow passage, high ones fast passage. `COCC[C@@H]1NC(=O)[C@H](C)N(C)C(=O)[C@H](Cc2ccccc2)N(C)C(=O)[C@H](Cc2ccc(Cl)cc2)NC(=O)[C@H]([C@@H](C)O)NC(=O)[C@H](Cc2ccc(F)cc2)NC(=O)[C@@H]2CCCN2C(=O)CSCCNC(=O)[C@H](C)N(C)C1=O` [compound 4] (cyclo([NMeA][hSer](Me)[NMeA][NHCH2CH2SCH2CO]P[Phe(4-F)]T[Phe(4-Cl)][NMeF])): the apical-to-basolateral permeability (Papp A→B) was in the range of 0.1 to 0.25 ×10⁻⁶ cm/s.
Same read-out and setting: the result for `COCC[C@@H]1NC(=O)[C@H](C)N(C)C(=O)[C@H](Cc2ccccc2)N(C)C(=O)[C@H](Cc2ccc(Cl)cc2)NC(=O)[C@H]([C@@H](C)O)NC(=O)[C@H](Cc2ccc(F)cc2)NC(=O)[C@@H]2CCCN2C(=O)CSC[C@H](Cc2cscn2)NC(=O)[C@H](C)N(C)C1=O` [compound 5] (cyclo([NMeA][hSer](Me)[NMeA][X1]P[Phe(4-F)]T[Phe(4-Cl)][NMeF])) reads 0.1 to 0.25 ×10⁻⁶ cm/s; that for `COCC[C@@H]1NC(=O)[C@H](C)N(C)C(=O)[C@H](Cc2ccccc2)N(C)C(=O)[C@H](Cc2ccc(Cl)cc2)NC(=O)[C@H]([C@@H](C)O)NC(=O)[C@H](Cc2ccc(F)cc2)NC(=O)CN(CCOC)C(=O)CSC[C@H](Cc2cscn2)NC(=O)[C@H](C)N(C)C1=O` [compound 6] (cyclo([NMeA][hSer](Me)[NMeA][X1][Nme][Phe(4-F)]T[Phe(4-Cl)][NMeF])), 0.1 to 0.25 ×10⁻⁶ cm/s.
Take `COCC[C@@H]1NC(=O)[C@H]2CCCN2C(=O)[C@H](Cc2ccccc2)N(C)C(=O)[C@H](Cc2ccc(Cl)cc2)NC(=O)[C@H](C(C)(C)C)NC(=O)[C@H](Cc2ccc(F)cc2)NC(=O)[C@H](C)N(C)C(=O)[C@@H](C)N(C)C(=O)[C@H](Cc2cscn2)NC(=O)[C@H](C)N(C)C1=O` [Comparative Example 1, reference compound] (cyclo([Ala(4-thiazolyl)][dNMeA][NMeA][Phe(4-F)][Tle][Phe(4-Cl)][NMeF][dP][hSer](Me)[NMeA])): the Papp A→B at 2 h, 10 μM (dog) is less than 0.1 ×10⁻⁶ cm/s.
`COCC[C@@H]1NC(=O)[C@@H](C)N(C)C(=O)[C@H](Cc2ccccc2)N(C)C(=O)[C@H](Cc2ccc(Cl)cc2)NC(=O)[C@H]([C@@H](C)O)NC(=O)[C@H](Cc2ccc(F)cc2)NC(=O)[C@@H]2CCCN2C(=O)CSCCNC(=O)[C@H](C)N(C)C1=O` [compound 3] (cyclo([NMeA][NHCH2CH2SCH2CO]P[Phe(4-F)]T[Phe(4-Cl)][NMeF][dNMeA][hSer](Me))) came in with a Papp A→B of 0.25 to 0.5 ×10⁻⁶ cm/s.
